{"source": "patent US20160095897A1", "about": "(priority 2013, published 2016)", "key": {"IAV A/PR/8/34 (H1N1)": {"tested_on": "IAV A/PR/8/34 (H1N1)", "type": "in vivo", "conditions": "mice, IAV A/PR/8/34 (H1N1) 40 or 60% lethal doses, pepducin p4pal-10 10 μg"}, "IAV A/PR/8/34": {"tested_on": "IAV A/PR/8/34", "type": "in vivo, mice", "conditions": "lethal dose"}}, "note": "Like-named read-outs stand apart in the source and are kept apart here."}
{"substance": "N-palmitoyl-SGRRYGHALR-NH2 (HELM PEPTIDE1{[CCCCCCCCCCCCCCCC(=O)[*:2]].S.G.R.R.Y.G.H.A.L.R.[am]}$$$$V2.0; SMILES CCCCCCCCCCCCCCCC(=O)N[C@@H](CO)C(=O)NCC(=O)N[C@@H](CCCNC(=N)N)C(=O)N[C@@H](CCCNC(=N)N)C(=O)N[C@@H](Cc1ccc(O)cc1)C(=O)NCC(=O)N[C@@H](Cc1c[nH]cn1)C(=O)N[C@@H](C)C(=O)N[C@@H](CC(C)C)C(=O)N[C@@H](CCCNC(=N)N)C(N)=O) [pepducin p4pal-10]", "values": [{"measurement": "death", "setting": "IAV A/PR/8/34 (H1N1)", "result": "protected mice from weight loss and death"}, {"measurement": "weight loss", "setting": "IAV A/PR/8/34 (H1N1)", "result": "protected mice from weight loss"}, {"measurement": "IL1-β level in BAL", "setting": "IAV A/PR/8/34; day 3 post-inoculation, ELISA", "result": "not at day 3"}, {"measurement": "IL-6 level in BAL", "setting": "IAV A/PR/8/34; day 3 post-inoculation, ELISA", "result": "not at day 3"}, {"measurement": "MIP-2 level in BAL", "setting": "IAV A/PR/8/34; day 3 post-inoculation, ELISA", "result": "not at day 3"}, {"measurement": "level of total proteins in BAL", "setting": "IAV A/PR/8/34; day 6 post-inoculation", "result": "significantly reduced"}, {"measurement": "IFN-γ level in BAL", "setting": "IAV A/PR/8/34; day 6 post-inoculation, ELISA", "result": "significantly reduced"}, {"measurement": "IL1-β level in BAL", "setting": "IAV A/PR/8/34; day 6 post-inoculation, ELISA", "result": "significantly reduced"}, {"measurement": "IL-6 level in BAL", "setting": "IAV A/PR/8/34; day 6 post-inoculation, ELISA", "result": "significantly reduced"}, {"measurement": "MIP-2 level in BAL", "setting": "IAV A/PR/8/34; day 6 post-inoculation, ELISA", "result": "significantly reduced"}, {"measurement": "KC level in BAL", "setting": "IAV A/PR/8/34; treated vs not treated", "result": "similar"}, {"measurement": "RANTES level in BAL", "setting": "IAV A/PR/8/34; treated vs not treated", "result": "similar"}]}
